Patent publication US20230098667A1, “BENZODIAZEPINE DERIVATIVES, COMPOSITIONS, AND METHODS FOR TREATING COGNITIVE IMPAIRMENT” (priority 2019, published 2023)
Entries after “also recorded” stand apart in the source; their conditions may differ. Read-outs that look alike come from different tables or passages of the source.

What was measured:
[1] = target: T1, GABAA receptors α5β3γ2 (GABA α5) (Homo sapiens, UniProt P18507+P31644); assay: Binding activity on GABAAR: inhibition of [3H]Ro15-1788 binding, membranes of Ltk cells; conditions: α5β3γ2 Ltk cell membranes
T1 construct: membranes
T1 sequence (P31644 32-462): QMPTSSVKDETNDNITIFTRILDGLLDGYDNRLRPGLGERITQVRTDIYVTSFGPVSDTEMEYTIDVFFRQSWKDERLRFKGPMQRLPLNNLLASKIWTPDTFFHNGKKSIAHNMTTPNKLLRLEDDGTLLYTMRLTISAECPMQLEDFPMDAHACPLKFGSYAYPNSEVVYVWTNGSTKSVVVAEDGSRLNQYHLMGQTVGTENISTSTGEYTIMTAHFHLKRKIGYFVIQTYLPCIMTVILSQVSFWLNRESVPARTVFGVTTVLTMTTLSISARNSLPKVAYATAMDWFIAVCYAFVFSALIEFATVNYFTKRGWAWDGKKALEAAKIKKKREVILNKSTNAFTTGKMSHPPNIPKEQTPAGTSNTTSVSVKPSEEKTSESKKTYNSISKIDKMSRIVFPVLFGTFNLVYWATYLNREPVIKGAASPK
T1 sequence (P28472 26-473 partner): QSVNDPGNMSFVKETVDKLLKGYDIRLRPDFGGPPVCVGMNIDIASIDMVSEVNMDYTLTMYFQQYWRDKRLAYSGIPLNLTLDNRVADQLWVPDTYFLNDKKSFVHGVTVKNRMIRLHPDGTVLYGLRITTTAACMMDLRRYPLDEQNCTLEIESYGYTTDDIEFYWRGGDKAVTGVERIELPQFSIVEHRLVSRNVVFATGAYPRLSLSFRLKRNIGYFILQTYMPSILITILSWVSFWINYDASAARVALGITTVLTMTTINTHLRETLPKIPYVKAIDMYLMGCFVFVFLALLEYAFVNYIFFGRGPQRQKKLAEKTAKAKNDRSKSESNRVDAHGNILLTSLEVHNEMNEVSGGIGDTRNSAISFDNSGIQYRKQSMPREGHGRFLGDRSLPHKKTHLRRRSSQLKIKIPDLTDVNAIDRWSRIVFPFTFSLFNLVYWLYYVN
T1 sequence (P18507 40-467 limits assumed): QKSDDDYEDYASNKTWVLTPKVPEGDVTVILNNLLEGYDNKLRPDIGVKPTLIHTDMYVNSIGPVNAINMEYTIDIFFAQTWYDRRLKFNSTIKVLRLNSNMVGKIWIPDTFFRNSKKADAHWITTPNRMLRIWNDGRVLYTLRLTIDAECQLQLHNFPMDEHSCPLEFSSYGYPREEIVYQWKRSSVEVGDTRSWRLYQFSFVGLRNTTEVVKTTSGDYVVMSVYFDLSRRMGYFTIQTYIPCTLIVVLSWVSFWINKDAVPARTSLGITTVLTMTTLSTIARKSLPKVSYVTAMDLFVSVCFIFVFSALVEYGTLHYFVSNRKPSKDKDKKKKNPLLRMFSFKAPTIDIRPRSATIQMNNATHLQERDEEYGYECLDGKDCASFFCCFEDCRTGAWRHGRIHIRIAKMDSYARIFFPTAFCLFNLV
Method: (§1) Tissue culture and Membrane Preparation: The binding was performed on Ltk cells stably expressing GABAA receptors: α1β1γ2, α2β3γ2, α3β3γ2 and α5β3γ2 (provided by Merck Co., NJ, USA). Cells were seeded in 100 mm culture plates in DMEM/F12 medium containing 10% serum and antibiotics in 5% CO2 and allowed to grow for 1-2 days. GABAAR expression was then induced by dexamethasone as follows: 0.5 μM for 1 day for α5 containing and 2 μM for 3 days for α1, α2 and α3 containing GABAARs. After induction, cells were collected by scraping into Dulbecco's Phosphate buffered saline (DPBS, pH 7.4, Invitrogen, Carlsbad, Calif., USA) and centrifuged at 150×g for 10 min. The pellet was washed twice by re-suspension and centrifugation. The cell pellets from at least 5 different preps were combined, suspended in the binding assay buffer (50 mM KH2PO4; 1 mM EDTA; 0.2 M KCl, pH 7.4) and membranes prepared by sonication (3-5 times, 30 sec) using Branson Sonifier 150 (G. Heinmann, Germany). Protein content was determined using BCA assay (Bio-Rad Labs, Reinach, Switzerland) with Bovine Serum Albumin (Sigma Aldrich, St. Louis, Mo., USA) as the standard. Aliquots were prepared and stored at −20° C. for further use in binding assays.
(§2) Ligand Binding: Saturation binding curves were obtained by incubating membranes with increasing concentrations (0.01-8 nM) of [^3H]Rol5-1788 (Flumazepil, 75-85 Ci/mmol, PerkinElmer, MA, USA), with nonspecific binding measured in the presence of 10 μM diazepam.
All binding assays were performed for 1 h at 4° C. in assay buffer. The total assay volume was 0.5 ml containing 0.2 mg/ml protein for α5 and 0.4 mg/ml for α1, α2, and α3 containing GABAAR membranes. Incubations were terminated by filtration through GF/B filters using a 24-Cell Harvestor (Brandel, Gaithersburg, Md., USA) followed by 3 washes with ice-cold assay buffer. Filters were transferred to scintillation vials, 5 ml scintillation liquid added, vortex-mixed and kept in dark. Next day, radioactivity was obtained using a scintillation counter (Beckman Coulter, Brea, Calif., USA). All assays were performed in triplicate.
Data Analyses: Saturation and inhibition curves were obtained using GraphPad Prism software (GraphPad Software, Inc., CA, USA).

[2] = system: GABA α5 versus GABA α1, GABA α2, or GABA α3; assay: Binding selectivity from [3H]Ro15-1788 binding on GABAAR subtypes
Method: as §1, with “The cell pellets from at least 5 different preps were combined, suspended in the binding assay buffer (50 mM KH2PO4; 1 mM EDTA; 0.2 M KCl, pH 7.4) and membranes prepared by sonication (3-5 times, 30 sec) using Branson Sonifier 150 (G. Heinmann, Germany).” left out, “Aliquots were prepared and stored at −20° C. for further use in binding assays.” left out
as §2
All binding assays were performed for 1 h at 4° C. in assay buffer. […] Next day, radioactivity was obtained using a scintillation counter (Beckman Coulter, Brea, Calif., USA). […]

GABAA receptors (α5β2γ2) = target: T2, GABAA receptors (α5β2γ2) (Homo sapiens, UniProt P18507+P31644); assay: Positive allosteric modulator activity: potentiation of EC20 GABA current in oocytes; assay type: cell-based; conditions: @ 100 nM
T2 construct: expressed in transfected cells
T2 sequence (P31644 32-462): T1 sequence (P31644 32-462)
T2 sequence (P47870 25-512 partner limits assumed): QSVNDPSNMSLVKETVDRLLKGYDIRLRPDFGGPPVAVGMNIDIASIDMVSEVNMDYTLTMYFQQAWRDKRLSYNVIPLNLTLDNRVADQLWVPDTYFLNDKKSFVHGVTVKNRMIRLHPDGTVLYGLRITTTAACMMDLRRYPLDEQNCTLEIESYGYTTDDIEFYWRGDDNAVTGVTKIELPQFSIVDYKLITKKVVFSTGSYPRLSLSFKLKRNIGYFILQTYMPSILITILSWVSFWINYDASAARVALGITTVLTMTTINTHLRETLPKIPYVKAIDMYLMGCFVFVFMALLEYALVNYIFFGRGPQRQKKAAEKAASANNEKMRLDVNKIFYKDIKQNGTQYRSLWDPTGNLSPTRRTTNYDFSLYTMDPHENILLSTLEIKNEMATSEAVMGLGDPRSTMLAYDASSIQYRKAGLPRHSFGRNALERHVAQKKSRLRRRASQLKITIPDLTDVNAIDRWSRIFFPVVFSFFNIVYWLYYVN
T2 sequence (P18507 40-467 limits assumed): T1 sequence (P18507 40-467 limits assumed)
Method: On day 1, 1 ng/32 nL of GABAA α5β2γ2 cDNA was injected into one oocyte. Test starts on day 2. The cDNA injected to the oocytes was a mix of alpha, beta and gamma, their ratio is 1:1:10 (by weight) and the total weight of the mixed 3 subunits to be injected in one oocyte was 1 ng in 32 nl volume. The injected oocytes can also be tested on day 3. In such case, the cDNA amount injected to the oocytes should be reduced by 20%.
1). 8 oocytes were placed in 8 chambers of OpusXpress and superfused with Modified Barth's Saline (MBS) at 3 mL/min. Glass electrodes back-filled with 3M KCl (0.5-3 megaohms) were used. […] 2). […] 3).
1). New oocytes were used to run new test. 2). […] 3). […] Oocytes were washed with MBS for 5-10 min. 4). […] Itest was divided by IGABA to obtain potentiation (%).
1). Repeat the above steps 1), 2) and 3) in the control test. 2). […] Divide Itest by IGABA to obtain potentiation (%). 3). Discard all tested oocytes, new oocytes were used and the above steps 1) and 2) were repeated to test second concentration of the same compound. Each oocyte was used for only one concentration test for a single test compound. The steps were repeated for other test compounds.

aged-impaired (AI) rats = assay: Radial Arm Maze (RAM) behavioral task, two-hour delay; assay type: in vivo, rat; conditions: 3 mg/kg ip
Method: The effects of methyl 3,5-diphenylpyridazine-4-carboxylate on the in vivo spatial memory retention of aged-impaired (AI) rats were assessed in a Radial Arm Maze (RAM) behavioral task using vehicle control and four different dosage levels of methyl 3,5-diphenylpyridazine-4-carboxylate (0.1 mg/kg, 0.3 mg/kg, 1 mg/kg and 3 mg/kg, ip). RAM behavioral tasks were performed on eight AI rats. All five treatment conditions (vehicle and four dosage levels) were tested on all eight rats.
The RAM apparatus used consisted of eight equidistantly-spaced arms. An elevated maze arm (7 cm width×75 cm length) projected from each facet of an octagonal center platform (30 cm diameter, 51.5 cm height). Clear side walls on the arms were 10 cm high and were angled at […] to form a trough. A food well (4 cm diameter, 2 cm deep) was located at the distal end of each arm. Froot Loops™ (Kellogg Company) were used as rewards. Blocks constructed of Plexiglas™ (30 cm height×12 cm width) could be positioned to prevent entry to any arm. Numerous extra maze cues surrounding the apparatus were also provided.
The AI rats were initially subjected to a pre-training test (Chappell et al. Neuropharmacology 37: 481-487, 1998). […]

GABAA α5 receptor = target: T3, GABAA α5 receptor (Rattus norvegicus, UniProt P19969); assay: GABAA α5 receptor occupancy with Ro 15-4513 tracer; assay type: in vivo, Long Evans rats
T3 construct: from tissue; host or cells: brain of living Long Evans rats; hippocampus and cerebellum dissected after i.v. dosing
T3 sequence (P19969 32-464 limits assumed): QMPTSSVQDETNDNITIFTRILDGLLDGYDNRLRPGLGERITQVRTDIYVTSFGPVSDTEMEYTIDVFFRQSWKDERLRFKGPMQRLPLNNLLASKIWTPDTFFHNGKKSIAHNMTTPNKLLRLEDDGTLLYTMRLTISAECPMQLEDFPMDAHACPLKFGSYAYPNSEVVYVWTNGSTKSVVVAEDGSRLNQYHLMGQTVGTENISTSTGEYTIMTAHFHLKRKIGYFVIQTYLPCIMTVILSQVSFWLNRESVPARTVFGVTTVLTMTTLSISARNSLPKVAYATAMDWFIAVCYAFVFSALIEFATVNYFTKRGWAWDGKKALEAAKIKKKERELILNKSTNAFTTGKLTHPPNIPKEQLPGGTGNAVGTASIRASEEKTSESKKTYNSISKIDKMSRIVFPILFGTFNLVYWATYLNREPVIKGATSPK
Text: (§3) Food and water were available ad libitum.

[3] = assay type: in vivo, Long Evans rats
Method: as §3
For plasma exposures, blood samples were centrifuged at 14000 rpm for 16 minutes. After centrifuging, 50 ul of supernatant (plasma) from each sample was added to 200 μl of acetonitrile plus 0.1% formic acid. […] Samples were sonicated for 5 minutes in an ultrasonic water bath, followed by centrifugation for 30 minutes, at 16000 RPM. 100 ul of supernatant was removed from each sample vial and placed in a new glass auto sample vial, followed by the addition of 300 μl of sterile water (pH 6.5).
Additional studies were conducted in aged Long-Evans rats in order to determine the exposures at the behaviorally relevant doses in the cognition studies. Exposure in young Long-Evans rats was also determined to bridge with the receptor occupancy studies that were conducted in young Long-Evans rats. Exposures in young and aged Long-Evans rats were relatively similar (Table 4, FIG. 4).

α5-containing GABAA R = target: T4, α5-containing GABAA R (Homo sapiens, UniProt P18507+P31644); conditions: cited from earlier work
T4 sequence (P31644 32-462): T1 sequence (P31644 32-462)
T4 sequence (P28472 26-473 partner): T1 sequence (P28472 26-473 partner)
T4 sequence (P18507 40-467 limits assumed): T1 sequence (P18507 40-467 limits assumed)

SMILES: COc1ncc(C#Cc2ncn3c2Cc2cnnn2-c2cc(Cl)ccc2-3)cc1C(F)(F)F [Compound 733]
- Ki [1]: < 100 nM
- Binding selectivity for GABA α5 versus GABA α1, GABA α2, or GABA α3 [2]: >100-fold

SMILES: COCc1nnn2c1Cc1c(C#Cc3cnc(C)[nH]3)ncn1-c1ccc(Cl)cc1-2 [Compound 739]
- Ki [1]: < 100 nM
- GABA α5 functional potentiation (GABAA receptors (α5β2γ2)): >50% @ 100 nM

SMILES: COC(=O)c1c(-c2ccccc2)cnnc1-c1ccccc1 [methyl 3,5-diphenylpyridazine-4-carboxylate]
- average no. of errors ± SEM in retention test (aged-impaired (AI) rats): 1.31±0.40
- memory performance relative to vehicle control (aged-impaired (AI) rats): significantly improved memory performance
- effect on Ro 15-4513 binding in hippocampus and cerebellum (GABAA α5 receptor; 0.01-10 mg/kg, i.v.): blocked the binding of Ro154513 in the hippocampus but did not affect binding of Ro15413 in the cerebellum; also recorded: dose-dependently reduced Ro 15-4513 binding in hippocampus, without affecting cerebellum levels of Ro 15-4513
- GABAA α5 receptors occupied in hippocampus (GABAA α5 receptor; at exposures behaviorally active in aged-impaired rats): about 32%
- receptor occupancy depending on method (GABAA α5 receptor; exposure of 180 ng/g in hippocampus (1 mg/kg, i.v.)): 32-39%
- ED50 of receptor occupancy, ratio method (GABAA α5 receptor; i.v., ratio method): 1.8 mg/kg
- receptor occupancy at 10 mg/kg (GABAA α5 receptor; rat, iv, 10 mg/kg): > 90%
- increase in hippocampal exposure ([3]; dose from 0.1 to 1 mg/kg, i.v.): 12 fold
- increase in exposure in hippocampus and plasma ([3]; dose from 1 to 3 mg/kg, ip, young and aged rats): 4.5 to 6.6 fold
- increase in hippocampal exposure ([3]; dose from 1 to 10 mg/kg, i.v.): ~5 fold
- increase in plasma exposure ([3]; dose from 1 to 10 mg/kg, i.v.): 12 fold
- α5 in vitro efficacy (EC20) (α5-containing GABAA R): +27
